For five molecules, ED50 results are on record in ChEMBL document CHEMBL1139337, “Syntheses and biological activities of fluorescent-labeled analogs of acylpolyamine toxin NPTX-594 isolated from the venom of Madagascar Joro spider” (2009).

The structures appear in SMILES notation.

In this experiment the test system is Gryllus bimaculatus. The experiment in a line: Induction of paralysis in Gryllus bimaculatus assessed as drug level causing paralysis per gram of cricket after 5 mins. Format: functional.
Take `NCCCC[C@H](N)C(=O)NCCCNCCCNCCCCNC(=O)[C@H](CC(N)=O)NC(=O)Cc1cc(=O)oc2cc(O)ccc12`: the ED50 stood at 1.05 nmol. As to `NCCCC[C@H](N)C(=O)NCCCNCCCNCCCCNC(=O)[C@H](CC(N)=O)NC(=O)c1cc2ccc(O)cc2oc1=O`, the ED50 worked out at 2.59 nmol. For `NCCCC[C@H](N)C(=O)NCCCNCCCNCCCCNC(=O)[C@H](CC(N)=O)NC(=O)Cc1ccc(O)cc1O` the value was 0.175 nmol; for `NCCCCNCC(=O)NCCCNCCCNCCCCNC(=O)[C@H](CC(N)=O)NC(=O)Cc1cc(=O)oc2cc(O)ccc12`, 0.136 nmol.

`NCCCCNCC(=O)NCCCNCCCNCCCCNC(=O)[C@H](CC(N)=O)NC(=O)c1cc2ccc(O)cc2oc1=O`: the ED50 was determined as 5.69 nmol.
